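Grown in 96-well plates, cells were treated for 48 hours with each compound at five concentrations. Insufficient inhibition: endpoint recorded as highest concentration tested. GI50 marks 50% less growth. TGI is the concentration that stops growth completely.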
Legend:
Assay in all cases: DTP human tumour cell line panel, 48 h
SF-295 CNS = test system: SF-295 CNS
TK-10 renal = test system: TK-10 renal
KM12 colon = test system: KM12 colon
OVCAR-8 ovarian = test system: OVCAR-8 ovarian
ACHN renal = test system: ACHN renal
SW-620 colon = test system: SW-620 colon
KM20L2 colon = test system: KM20L2 colon
COLO 205 colon = test system: COLO 205 colon
HT29 colon = test system: HT29 colon
SNB-19 CNS = test system: SNB-19 CNS
MALME-3M melanoma = test system: MALME-3M melanoma
SF-268 CNS = test system: SF-268 CNS
HCC-2998 colon = test system: HCC-2998 colon
SNB-75 CNS = test system: SNB-75 CNS
786-0 renal = test system: 786-0 renal
SK-MEL-5 melanoma = test system: SK-MEL-5 melanoma
NCI-H23 lung = test system: NCI-H23 lung
OVCAR-5 ovarian = test system: OVCAR-5 ovarian
HCT-15 colon = test system: HCT-15 colon
NCI-H226 lung = test system: NCI-H226 lung
SN12C renal = test system: SN12C renal
UO-31 renal = test system: UO-31 renal
HL-60(TB) leukemia = test system: HL-60(TB) leukemia
U251 CNS = test system: U251 CNS
SK-MEL-2 melanoma = test system: SK-MEL-2 melanoma
RPMI-8226 leukemia = test system: RPMI-8226 leukemia
M14 melanoma = test system: M14 melanoma
OVCAR-3 ovarian = test system: OVCAR-3 ovarian
CAKI-1 renal = test system: CAKI-1 renal
HOP-92 NSCLC = test system: HOP-92 NSCLC
K-562 leukemia = test system: K-562 leukemia
SK-OV-3 ovarian = test system: SK-OV-3 ovarian
UACC-62 melanoma = test system: UACC-62 melanoma
OVCAR-4 ovarian = test system: OVCAR-4 ovarian
A549 NSCLC = test system: A549 NSCLC
SF-539 CNS = test system: SF-539 CNS
SK-MEL-28 melanoma = test system: SK-MEL-28 melanoma
IGROV1 ovarian = test system: IGROV1 ovarian
HCT-116 colon = test system: HCT-116 colon
NCI-H522 lung = test system: NCI-H522 lung
MOLT-4 leukemia = test system: MOLT-4 leukemia
HOP-62 NSCLC = test system: HOP-62 NSCLC
LOX IMVI melanoma = test system: LOX IMVI melanoma
EKVX NSCLC = test system: EKVX NSCLC
UACC-257 melanoma = test system: UACC-257 melanoma
M19-MEL melanoma = test system: M19-MEL melanoma
SNB-78 CNS = test system: SNB-78 CNS
CCRF-CEM leukemia = test system: CCRF-CEM leukemia
SR leukemia = test system: SR leukemia
A498 renal = test system: A498 renal
DMS 114 small cell lung = test system: DMS 114 small cell lung
NCI-H460 lung = test system: NCI-H460 lung
LXFL 529 NSCLC = test system: LXFL 529 NSCLC

## CC(=O)[C-](C(C)=O)c1ccccc1.CC(=O)[C-](C(C)=O)c1ccccc1.CC[O-].CC[O-].[Ti+4]
SF-295 CNS
  GI50: > 100 µM
  TGI: > 100 µM
TK-10 renal
  GI50: > 100 µM
  TGI: > 100 µM
KM12 colon
  GI50: > 100 µM
  TGI: > 100 µM
OVCAR-8 ovarian
  GI50: > 100 µM
  TGI: > 100 µM
ACHN renal
  GI50: > 100 µM
  TGI: > 100 µM
SW-620 colon
  GI50: > 100 µM
  TGI: > 100 µM
KM20L2 colon
  GI50: > 100 µM
  TGI: > 100 µM
COLO 205 colon
  GI50: > 100 µM
  TGI: > 100 µM
HT29 colon
  GI50: > 100 µM
  TGI: > 100 µM
SNB-19 CNS
  GI50: > 100 µM
  TGI: > 100 µM
MALME-3M melanoma
  GI50: > 100 µM
  TGI: > 100 µM
SF-268 CNS
  GI50: > 100 µM
  TGI: > 100 µM
HCC-2998 colon
  GI50: > 100 µM
  TGI: > 100 µM
SNB-75 CNS
  GI50: > 100 µM
  TGI: > 100 µM
786-0 renal
  GI50: > 100 µM
  TGI: > 100 µM
SK-MEL-5 melanoma
  GI50: > 100 µM
  TGI: > 100 µM
NCI-H23 lung
  GI50: > 100 µM
  TGI: > 100 µM
OVCAR-5 ovarian
  GI50: > 100 µM
  TGI: > 100 µM
HCT-15 colon
  GI50: > 100 µM
  TGI: > 100 µM
NCI-H226 lung
  GI50: > 100 µM
  TGI: > 100 µM
SN12C renal
  GI50: > 100 µM
  TGI: > 100 µM
UO-31 renal
  GI50: > 100 µM
  TGI: > 100 µM
HL-60(TB) leukemia
  GI50: > 100 µM
  TGI: > 100 µM
U251 CNS
  GI50: > 100 µM
  TGI: > 100 µM
SK-MEL-2 melanoma
  GI50: > 100 µM
  TGI: > 100 µM
RPMI-8226 leukemia
  GI50: > 100 µM
  TGI: > 100 µM
M14 melanoma
  GI50: > 100 µM
  TGI: > 100 µM
OVCAR-3 ovarian
  GI50: > 100 µM
  TGI: > 100 µM
CAKI-1 renal
  GI50: > 100 µM
  TGI: > 100 µM
HOP-92 NSCLC
  GI50: > 100 µM
  TGI: > 100 µM
K-562 leukemia
  GI50: > 100 µM
  TGI: > 100 µM
SK-OV-3 ovarian
  GI50: > 100 µM
  TGI: > 100 µM
UACC-62 melanoma
  GI50: > 100 µM
  TGI: > 100 µM
OVCAR-4 ovarian
  GI50: > 100 µM
  TGI: > 100 µM
A549 NSCLC
  GI50: > 100 µM
  TGI: > 100 µM
SF-539 CNS
  GI50: > 100 µM
  TGI: > 100 µM
SK-MEL-28 melanoma
  GI50: > 100 µM
  TGI: > 100 µM
IGROV1 ovarian
  GI50: > 100 µM
  TGI: > 100 µM
HCT-116 colon
  GI50: > 100 µM
  TGI: > 100 µM
NCI-H522 lung
  GI50: > 100 µM
  TGI: > 100 µM
MOLT-4 leukemia
  GI50: > 100 µM
  TGI: > 100 µM
HOP-62 NSCLC
  GI50: > 100 µM
  TGI: > 100 µM
LOX IMVI melanoma
  GI50: > 100 µM
  TGI: > 100 µM
EKVX NSCLC
  GI50: > 100 µM
  TGI: > 100 µM
UACC-257 melanoma
  GI50: > 100 µM
  TGI: > 100 µM

## COc1ccc2c(c1)CC[C@@H]1C2CC[C@]2(C)C(=O)N(N)C(=O)CC12 (some centres undefined)
SF-295 CNS
  TGI: > 100 µM
KM12 colon
  TGI: > 100 µM
ACHN renal
  TGI: > 100 µM
M19-MEL melanoma
  TGI: > 100 µM
KM20L2 colon
  TGI: > 100 µM
COLO 205 colon
  TGI: > 100 µM
HT29 colon
  TGI: > 100 µM
SNB-19 CNS
  TGI: > 100 µM
SNB-78 CNS
  TGI: > 100 µM
MALME-3M melanoma
  TGI: > 100 µM
SF-268 CNS
  TGI: > 100 µM
SNB-75 CNS
  TGI: > 100 µM
786-0 renal
  TGI: > 100 µM
NCI-H23 lung
  TGI: > 100 µM
CCRF-CEM leukemia
  TGI: > 100 µM
OVCAR-5 ovarian
  TGI: > 100 µM
SR leukemia
  TGI: > 100 µM
UO-31 renal
  TGI: > 100 µM
U251 CNS
  TGI: > 100 µM
SK-MEL-2 melanoma
  TGI: > 100 µM
A498 renal
  TGI: > 100 µM
RPMI-8226 leukemia
  TGI: > 100 µM
M14 melanoma
  TGI: > 100 µM
OVCAR-3 ovarian
  TGI: > 100 µM
HOP-92 NSCLC
  TGI: > 100 µM
K-562 leukemia
  TGI: > 100 µM
DMS 114 small cell lung
  TGI: > 100 µM
SK-OV-3 ovarian
  TGI: > 100 µM
UACC-62 melanoma
  TGI: > 100 µM
OVCAR-4 ovarian
  TGI: > 100 µM
SK-MEL-28 melanoma
  TGI: > 100 µM
IGROV1 ovarian
  TGI: > 100 µM
HCT-116 colon
  TGI: > 100 µM
NCI-H522 lung
  TGI: > 100 µM
MOLT-4 leukemia
  TGI: > 100 µM
NCI-H460 lung
  TGI: > 100 µM
HOP-62 NSCLC
  TGI: > 100 µM
LXFL 529 NSCLC
  TGI: > 100 µM
UACC-257 melanoma
  TGI: > 100 µM
